One assay deals with MCD diet-induced NASH. To be noted: administration of clodronate; Non Patent Literature 4; cited from earlier work.
Assay [1] has as its system imiquimod-induced psoriasis relapse. In words: Imiquimod-induced psoriasis relapse model. Conditions: imeglimin 40 mg/kg orally, alternate days Day 8 to 22, then daily from Day 23; compared to IMQ. The class given is in vivo, mice. As to the method:
To the left auricle of each mouse, 62.5 mg of 5% imiquimod cream (Beselna Cream 5%) was applied once daily a total of seven times (Days 1 to 7) in accordance with Example 19 to induce imiquimod-induced psoriasis. Thereafter, the imiquimod treatment was interrupted, and imeglimin (40 mg/kg) was orally administered on alternate days for 2 weeks (Day 8 to 22) (IMG). Mice without administration of imeglimin were designated IMQ. On Day 23, the imiquimod treatment was resumed, and 62.5 mg of 5% imiquimod cream (Beselna Cream 5%) was applied once daily a total of […]. In parallel, imeglimin (40 mg/kg) was orally administered daily to IMG.

The target of a further assay is V-ATPase (Homo sapiens, UniProt P38606). In words: Inhibitory effect on V-ATPase (data not shown). The class given is biochemical.
V-ATPase, sequence (P38606 whole entry): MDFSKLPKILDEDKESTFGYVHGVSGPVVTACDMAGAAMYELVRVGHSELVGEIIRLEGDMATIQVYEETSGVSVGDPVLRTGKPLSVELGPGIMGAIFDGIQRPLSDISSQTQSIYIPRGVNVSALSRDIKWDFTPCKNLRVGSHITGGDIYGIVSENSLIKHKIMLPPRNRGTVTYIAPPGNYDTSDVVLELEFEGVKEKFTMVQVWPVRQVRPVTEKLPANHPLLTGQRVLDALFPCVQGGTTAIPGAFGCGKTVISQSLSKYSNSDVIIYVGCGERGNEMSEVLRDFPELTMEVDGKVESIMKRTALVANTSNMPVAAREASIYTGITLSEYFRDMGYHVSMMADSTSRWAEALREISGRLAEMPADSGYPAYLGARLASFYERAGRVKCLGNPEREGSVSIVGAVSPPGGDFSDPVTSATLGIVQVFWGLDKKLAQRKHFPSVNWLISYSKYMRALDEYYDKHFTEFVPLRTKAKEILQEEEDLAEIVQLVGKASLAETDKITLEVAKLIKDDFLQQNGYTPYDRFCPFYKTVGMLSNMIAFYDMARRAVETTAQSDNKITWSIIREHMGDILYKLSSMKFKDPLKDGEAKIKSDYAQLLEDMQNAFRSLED
The test system of another assay is ATP-loaded vesicles. Briefly: MANT-ATP accumulation in ATP-loaded granules of keratinocytes (confocal microscopy). The class given is cell-based, human. Conditions: 10 µM imeglimin, 19 hours; 0.3 mM MANT-ATP. As to the method:
Keratinocytes were cultured in the same manner as in Example 8. Keratinocytes were cultured at 4 × 10^4 cells/ml in a glass-bottom dish (35 mm, manufactured by Matsunami Glass Ind., Ltd.) at 37°C in 5% CO2 for 2 days. The culture medium was then replaced with a medium supplemented with MANT-ATP (manufactured by Invitrogen) at a final concentration of 0.3 mM, and further incubation was performed for 4.5 hours. Subsequently, imeglimin was added thereto to a final concentration of 10 µM, and further incubation was performed at 37°C in 5% CO2 for 19 hours. Thereafter, the cells were washed twice with HBSS (manufactured by Gibco) and observed using an inverted confocal laser microscope (FV-1000 OSR, manufactured by Olympus Corporation).

A further assay deals with T1, VNUT (Homo sapiens, UniProt Q9BYT1).
T1 sequence (Q9BYT1 1-436): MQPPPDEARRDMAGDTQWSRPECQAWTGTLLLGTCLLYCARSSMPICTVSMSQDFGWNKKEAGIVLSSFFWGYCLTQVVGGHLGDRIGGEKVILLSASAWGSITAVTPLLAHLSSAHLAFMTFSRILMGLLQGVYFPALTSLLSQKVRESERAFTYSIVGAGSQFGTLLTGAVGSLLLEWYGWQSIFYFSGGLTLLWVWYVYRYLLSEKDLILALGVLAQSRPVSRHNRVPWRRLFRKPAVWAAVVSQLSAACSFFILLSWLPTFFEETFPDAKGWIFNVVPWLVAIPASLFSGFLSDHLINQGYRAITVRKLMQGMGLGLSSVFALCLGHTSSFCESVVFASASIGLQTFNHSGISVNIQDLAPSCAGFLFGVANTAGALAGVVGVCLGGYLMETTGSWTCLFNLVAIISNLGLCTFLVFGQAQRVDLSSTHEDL
In words: Inhibitory effect on VNUT (data not shown). The class given is biochemical.

Assay [2] deals with human epidermal keratinocytes. Briefly: Imiquimod-induced ATP secretion in keratinocytes. To be noted: 18 hours incubation, imiquimod 15 minutes, N = 8. The class given is cell-based. The method, then: In the same manner as in Example 1, keratinocytes were cultured at 2.5×10^4 cells/well in a 24-well plate at 37°C in 5% CO2 for 4 days. The medium was replaced with HBSS (manufactured by Gibco) supplemented with 1 µM or 10 µM imeglimin, and incubation was performed at 37°C in 5% CO2 for 18 hours. Thereafter, imiquimod was added thereto at 1 µg/ml or 0.5 µg/ml, and incubation was performed for 15 minutes, followed by collection of 200 µl of the supernatant. The supernatant was immediately treated on a heat block at 95°C for 10 minutes, and ATP in the supernatant was quantified using a ATP Assay Kit - Luminescence (manufactured by Dojindo) (N = 8).

We go through two compounds from patent EP4696306A1, “ADENOSINE TRIPHOSPHATE SECRETION INHIBITOR, HEPATIC STELLATE CELL ACTIVATION INHIBITOR, HEPATIC STELLATE CELL DEACTIVATOR, HEPATIC FIBROSIS THERAPEUTIC AGENT, NON-ALCOHOLIC STEATOHEPATITIS THERAPEUTIC AGENT, PSORIASIS THERAPEUTIC AGENT, AND USE OF COMPOUND FOR PRODUCING ADENOSINE TRIPHOSPHATE …” (KURUME UNIVERSITY, priority 2023, dated 2024).

On to `O=P(O)(O)C(Cl)(Cl)P(=O)(O)O` [clodronate], for which, in the assay on MCD diet-induced NASH, the “NASH activity score, inflammatory cell infiltration, and hepatic fibrosis” value is “improves the NASH activity score, inflammatory cell infiltration, and hepatic fibrosis”.
As for `C[C@H]1N=C(N(C)C)N=C(N)N1` [imeglimin], the “psoriatic symptoms (auricular thickness) after resumed imiquimod treatment” value in assay [1] is listed as “markedly reduced”. In addition, at V-ATPase, the “inhibitory effect on V-ATPase” value is listed as “neither imeglimin nor metformin exhibited a strong inhibitory effect”. Besides, the “accumulation of MANT-ATP in granules” value with ATP-loaded vesicles is recorded as “this accumulation was absent”. On VNUT, the “inhibitory effect on VNUT” value is listed as “neither imeglimin nor metformin exhibited a strong inhibitory effect”. For the same compound, the “ATP secretion promoted by imiquimod” value in assay [2] (1 µM imeglimin) and in assay [2] (10 µM imeglimin) was “strongly inhibited” throughout.
